Test results as given in patent US9828413B2, “Vancomycin derivative, and preparation method and application thereof” (ACESYS PHARMA INC., priority 2013, dated 2017).
In brackets after ≈: the same amount, converted by molar mass.

Legend:
physchem = conditions: 25 °C, water, thermodynamic from solid
[1] = system: Staphylococcus aureus Newman; assay: In vitro activity assay, minimum inhibitory concentration (MIC), cup-plate method; type: cell-based; conditions: strain Newman, trypticase soy broth, read-out: MIC values, Staphylococcus aureus Newman
Procedure: (§1) In vitro activity assay was performed according to Microbiological Identification of Antibiotics, Appendix XIA, Volume II, Chinese Pharmacopoeia 2010. Vancomycin-sensitive Staphylococcus aureus strains (Newman and Mu 50) were selected as the test strains, and trypticase soy broth was selected as the culture medium.

[2] = system: Staphylococcus aureus Mu50; assay: as above; type: cell-based; conditions: strain Mu50, trypticase soy broth, read-out: MIC values, Staphylococcus aureus Mu50
Procedure: as §1

Row | SMILES | solubility at 30 min (physchem) [µg/mL] | MIC [1] [µg/mL] | MIC [2] [µg/mL]
1 | CN[C@H](CC(C)C)C(=O)N[C@@H]1C(=O)NC(CC(N)=O)C(=O)NC2C(=O)NC3C(=O)N[C@H](C(=O)NC(C(=O)O)c4cc(O)cc(O)c4-c4cc3ccc4O)[C@H](O)c3ccc(c(Cl)c3)Oc3cc2cc(c3OC2OC(CO)C(O)C(O)C2OC2CC(C)(NCC(OCc3ccc(Cl)cc3)C(=O)OC)C(O)C(C)O2)Oc2ccc(cc2Cl)C1O (stereo partly drawn) [Compound V20] | < 5000 | < 0.125 | 2 (≈ 1.19 µM)
2 | CN[C@H](CC(C)C)C(=O)N[C@@H]1C(=O)NC(CC(N)=O)C(=O)NC2C(=O)NC3C(=O)N[C@H](C(=O)NC(C(=O)O)c4cc(O)cc(O)c4-c4cc3ccc4O)[C@H](O)c3ccc(c(Cl)c3)Oc3cc2cc(c3OC2OC(CO)C(O)C(O)C2OC2CC(C)(NCC(OCc3ccc(C)cc3)C(=O)OC)C(O)C(C)O2)Oc2ccc(cc2Cl)C1O (stereo partly drawn) [Compound V22] | < 5000 | 2 (≈ 1.21 µM) | 8 (≈ 4.83 µM)
3 | CN[C@H](CC(C)C)C(=O)N[C@@H]1C(=O)NC(CC(N)=O)C(=O)NC2C(=O)NC3C(=O)N[C@H](C(=O)NC(C(=O)O)c4cc(O)cc(O)c4-c4cc3ccc4O)[C@H](O)c3ccc(c(Cl)c3)Oc3cc2cc(c3OC2OC(CO)C(O)C(O)C2OC2CC(C)(NCC(OCc3ccc(Cl)cc3)C(=O)O)C(O)C(C)O2)Oc2ccc(cc2Cl)C1O (stereo partly drawn) [Compound V21] | > 8000 | < 0.125 | 2 (≈ 1.2 µM)
4 | CCOC(CNC1(C)CC(OC2C(Oc3c4cc5cc3Oc3ccc(cc3Cl)[C@@H](O)[C@@H]3NC(=O)C(NC(=O)C5NC(=O)C(CC(N)=O)NC(=O)[C@@H](NC(=O)[C@@H](CC(C)C)NC)C(O)c5ccc(c(Cl)c5)O4)c4ccc(O)c(c4)-c4c(O)cc(O)cc4C(C(=O)O)NC3=O)OC(CO)C(O)C2O)OC(C)C1O)C(=O)OC (stereo partly drawn) [Compound V33] | 5000 (≈ 3170 µM) | 16 (≈ 10.1 µM) | 64 (≈ 40.5 µM)
5 | CCCCCCOC(CNC1(C)CC(OC2C(Oc3c4cc5cc3Oc3ccc(cc3Cl)[C@@H](O)[C@@H]3NC(=O)C(NC(=O)C5NC(=O)C(CC(N)=O)NC(=O)[C@@H](NC(=O)[C@@H](CC(C)C)NC)C(O)c5ccc(c(Cl)c5)O4)c4ccc(O)c(c4)-c4c(O)cc(O)cc4C(C(=O)O)NC3=O)OC(CO)C(O)C2O)OC(C)C1O)C(=O)OC (stereo partly drawn) [Compound V31] | < 1000 | 2 (≈ 1.22 µM) | 8 (≈ 4.89 µM)
6 | COC(=O)C(CNC1(C)CC(OC2C(Oc3c4cc5cc3Oc3ccc(cc3Cl)[C@@H](O)[C@@H]3NC(=O)C(NC(=O)C5NC(=O)C(CC(N)=O)NC(=O)[C@@H](NC(=O)[C@H](N)CC(C)C)C(O)c5ccc(c(Cl)c5)O4)c4ccc(O)c(c4)-c4c(O)cc(O)cc4C(C(=O)O)NC3=O)OC(CO)C(O)C2O)OC(C)C1O)OCc1ccc(Cl)cc1 (stereo partly drawn) [Compound V52] | 20000 (≈ 12000 µM) | < 0.125 | 2 (≈ 1.2 µM)
7 | CN[C@H](CC(C)C)C(=O)NC1C(=O)N[C@@H](CC(N)=O)C(=O)N[C@H]2C(=O)NC3C(=O)N[C@H](C(=O)N[C@@H](C(=O)O)c4cc(O)cc(O)c4-c4cc3ccc4O)[C@H](O)c3ccc(c(Cl)c3)Oc3cc2cc(c3OC2OC(CO)C(O)C(O)C2OC2CC(C)(NCC(OCc3ccc(-c4ccc(Cl)cc4)cc3)C(=O)O)C(O)C(C)O2)Oc2ccc(cc2Cl)[C@H]1O (stereo partly drawn) [Compound V15] | ≥ 60000 | < 0.125 | 2 (≈ 1.15 µM)
8 | CN[C@H](CC(C)C)C(=O)N[C@@H]1C(=O)NC(CC(N)=O)C(=O)NC2C(=O)NC3C(=O)N[C@H](C(=O)NC(C(=O)O)c4cc(O)cc(O)c4-c4cc3ccc4O)[C@H](O)c3ccc(c(Cl)c3)Oc3cc2cc(c3OC2OC(CO)C(O)C(O)C2OC2CC(C)(NCC(OC)C(=O)OC)C(O)C(C)O2)Oc2ccc(cc2Cl)C1O (stereo partly drawn) [Compound V26] | 4500 (≈ 2870 µM) | 16 (≈ 10.2 µM) | 64 (≈ 40.9 µM)
9 | CN[C@H](CC(C)C)C(=O)NC1C(=O)N[C@@H](CC(N)=O)C(=O)N[C@H]2C(=O)NC3C(=O)N[C@H](C(=O)N[C@@H](C(=O)O)c4cc(O)cc(O)c4-c4cc3ccc4O)[C@H](O)c3ccc(c(Cl)c3)Oc3cc2cc(c3OC2OC(CO)C(O)C(O)C2OC2CC(C)(NCC(OCc3ccccc3)C(=O)OC)C(O)C(C)O2)Oc2ccc(cc2Cl)[C@H]1O (stereo partly drawn) [Compound V9] | < 100 | 8 (≈ 4.87 µM) | 32 (≈ 19.5 µM)
10 | CCCCOC(CNC1(C)CC(OC2C(Oc3c4cc5cc3Oc3ccc(cc3Cl)[C@@H](O)[C@@H]3NC(=O)C(NC(=O)[C@@H]5NC(=O)[C@H](CC(N)=O)NC(=O)C(NC(=O)[C@@H](CC(C)C)NC)[C@H](O)c5ccc(c(Cl)c5)O4)c4ccc(O)c(c4)-c4c(O)cc(O)cc4[C@H](C(=O)O)NC3=O)OC(CO)C(O)C2O)OC(C)C1O)C(=O)O (stereo partly drawn) [Compound V19] | 50000 to 60000 (≈ 31400 to 37700 µM) | 64 (≈ 40.2 µM) | > 128
11 | CN[C@H](CC(C)C)C(=O)N[C@@H]1C(=O)NC(CC(N)=O)C(=O)NC2C(=O)NC3C(=O)N[C@H](C(=O)NC(C(=O)O)c4cc(O)cc(O)c4-c4cc3ccc4O)[C@H](O)c3ccc(c(Cl)c3)Oc3cc2cc(c3OC2OC(CO)C(O)C(O)C2OC2CC(C)(NCC(OCc3ccc(-c4ccccc4)cc3)C(=O)OC)C(O)C(C)O2)Oc2ccc(cc2Cl)C1O (stereo partly drawn) [Compound V25] | < 5000 | 4 (≈ 2.33 µM) | 8 (≈ 4.66 µM)
12 | CN[C@H](CC(C)C)C(=O)NC1C(=O)N[C@@H](CC(N)=O)C(=O)N[C@H]2C(=O)NC3C(=O)N[C@H](C(=O)N[C@@H](C(=O)O)c4cc(O)cc(O)c4-c4cc3ccc4O)[C@H](O)c3ccc(c(Cl)c3)Oc3cc2cc(c3OC2OC(CO)C(O)C(O)C2OC2CC(C)(NCC(OCc3ccccc3)C(=O)O)C(O)C(C)O2)Oc2ccc(cc2Cl)[C@H]1O (stereo partly drawn) [Compound V11] | 50000 to 60000 (≈ 30700 to 36900 µM) | 8 (≈ 4.92 µM) | 32 (≈ 19.7 µM)

The next lines start with the values.

Row | solubility at 30 min (physchem) [µg/mL] | MIC [1] [µg/mL] | MIC [2] [µg/mL] | SMILES
13 | 20000 (≈ 11800 µM) | < 0.125 | 2 (≈ 1.18 µM) | CC(C)C[C@@H](N)C(=O)NC1C(=O)N[C@@H](CC(N)=O)C(=O)N[C@H]2C(=O)NC3C(=O)N[C@H](C(=O)N[C@@H](C(=O)O)c4cc(O)cc(O)c4-c4cc3ccc4O)[C@H](O)c3ccc(c(Cl)c3)Oc3cc2cc(c3OC2OC(CO)C(O)C(O)C2OC2CC(C)(NCC(OCc3ccc(-c4ccccc4)cc3)C(=O)O)C(O)C(C)O2)Oc2ccc(cc2Cl)[C@H]1O (stereo partly drawn) [Compound V53]
14 | 50000 to 60000 (≈ 31700 to 38000 µM) | 64 (≈ 40.5 µM) | > 128 | CCCCOC(CNC1(C)CC(OC2C(Oc3c4cc5cc3Oc3ccc(cc3Cl)[C@@H](O)[C@@H]3NC(=O)C(NC(=O)C5NC(=O)C(CC(N)=O)NC(=O)[C@@H](NC(=O)[C@H](N)CC(C)C)C(O)c5ccc(c(Cl)c5)O4)c4ccc(O)c(c4)-c4c(O)cc(O)cc4C(C(=O)O)NC3=O)OC(CO)C(O)C2O)OC(C)C1O)C(=O)O (stereo partly drawn) [Compound V58]
15 | 5000 to 20000 (≈ 2680 to 10700 µM) | < 0.125 | 2 (≈ 1.07 µM) | CC(C)C[C@@H](N)C(=O)N[C@@H]1C(=O)NC(CC(N)=O)C(=O)NC2C(=O)NC3C(=O)N[C@H](C(=O)NC(C(=O)O)c4cc(O)cc(O)c4-c4cc3ccc4O)[C@H](OC3CC(C)(N)C(O)C(C)O3)c3ccc(c(Cl)c3)Oc3cc2cc(c3OC2OC(CO)C(O)C(O)C2OC2CC(C)(NCC(OCc3ccc(-c4ccc(Cl)cc4)cc3)C(=O)O)C(O)C(C)O2)Oc2ccc(cc2Cl)C1O (stereo partly drawn) [Compound V66]
16 | 5000 to 20000 (≈ 2660 to 10600 µM) | < 0.125 | 2 (≈ 1.06 µM) | CN[C@H](CC(C)C)C(=O)NC1C(=O)N[C@@H](CC(N)=O)C(=O)N[C@H]2C(=O)NC3C(=O)N[C@H](C(=O)N[C@@H](C(=O)O)c4cc(O)cc(O)c4-c4cc3ccc4O)[C@H](OC3CC(C)(N)C(O)C(C)O3)c3ccc(c(Cl)c3)Oc3cc2cc(c3OC2OC(CO)C(O)C(O)C2OC2CC(C)(NCC(OCc3cccc(-c4ccc(Cl)cc4)c3)C(=O)O)C(O)C(C)O2)Oc2ccc(cc2Cl)[C@H]1O (stereo partly drawn) [Compound V65]
17 | 5000 to 20000 (≈ 2770 to 11100 µM) | 4 (≈ 2.22 µM) | 8 (≈ 4.43 µM) | CN[C@H](CC(C)C)C(=O)N[C@@H]1C(=O)NC(CC(N)=O)C(=O)NC2C(=O)NC3C(=O)N[C@H](C(=O)NC(C(=O)O)c4cc(O)cc(O)c4-c4cc3ccc4O)[C@H](OC3CC(C)(N)C(O)C(C)O3)c3ccc(c(Cl)c3)Oc3cc2cc(c3OC2OC(CO)C(O)C(O)C2OC2CC(C)(NCC(OCc3ccc(Cl)cc3)C(=O)O)C(O)C(C)O2)Oc2ccc(cc2Cl)C1O (stereo partly drawn) [Compound V62]
18 | 3000 (≈ 1730 µM) | < 0.125 | 2 (≈ 1.15 µM) | COC(=O)C(CNC1(C)CC(OC2C(Oc3c4cc5cc3Oc3ccc(cc3Cl)[C@@H](O)[C@@H]3NC(=O)C(NC(=O)[C@@H]5NC(=O)[C@H](CC(N)=O)NC(=O)C(NC(=O)[C@H](N)CC(C)C)[C@H](O)c5ccc(c(Cl)c5)O4)c4ccc(O)c(c4)-c4c(O)cc(O)cc4[C@H](C(=O)O)NC3=O)OC(CO)C(O)C2O)OC(C)C1O)OCc1ccc(-c2ccc(Cl)cc2)cc1 (stereo partly drawn) [Compound V55]
19 | > 60000 | 4 (≈ 2.56 µM) | 16 (≈ 10.2 µM) | CCCOC(CNC1(C)CC(OC2C(Oc3c4cc5cc3Oc3ccc(cc3Cl)[C@@H](O)[C@@H]3NC(=O)C(NC(=O)C5NC(=O)C(CC(N)=O)NC(=O)[C@@H](NC(=O)[C@H](N)CC(C)C)C(O)c5ccc(c(Cl)c5)O4)c4ccc(O)c(c4)-c4c(O)cc(O)cc4C(C(=O)O)NC3=O)OC(CO)C(O)C2O)OC(C)C1O)C(=O)O (stereo partly drawn) [Compound V57]
20 | < 10000 | 2 (≈ 1.23 µM) | 8 (≈ 4.93 µM) | CCCCCCOC(CNC1(C)CC(OC2C(Oc3c4cc5cc3Oc3ccc(cc3Cl)[C@@H](O)[C@@H]3NC(=O)C(NC(=O)C5NC(=O)C(CC(N)=O)NC(=O)[C@@H](NC(=O)[C@H](N)CC(C)C)C(O)c5ccc(c(Cl)c5)O4)c4ccc(O)c(c4)-c4c(O)cc(O)cc4C(C(=O)O)NC3=O)OC(CO)C(O)C2O)OC(C)C1O)C(=O)OC (stereo partly drawn) [Compound V59]
